We go through 15 molecules from ChEMBL document CHEMBL3856182, “How much successful are the medicinal chemists in modulation of SIRT1: A critical review” (Eur J Med Chem, 2016).

Data set [1] has as its target T1, NAD-dependent protein deacetylase sirtuin-2 (Homo sapiens, UniProt Q8IXJ6).
T1 sequence (Q8IXJ6 whole entry): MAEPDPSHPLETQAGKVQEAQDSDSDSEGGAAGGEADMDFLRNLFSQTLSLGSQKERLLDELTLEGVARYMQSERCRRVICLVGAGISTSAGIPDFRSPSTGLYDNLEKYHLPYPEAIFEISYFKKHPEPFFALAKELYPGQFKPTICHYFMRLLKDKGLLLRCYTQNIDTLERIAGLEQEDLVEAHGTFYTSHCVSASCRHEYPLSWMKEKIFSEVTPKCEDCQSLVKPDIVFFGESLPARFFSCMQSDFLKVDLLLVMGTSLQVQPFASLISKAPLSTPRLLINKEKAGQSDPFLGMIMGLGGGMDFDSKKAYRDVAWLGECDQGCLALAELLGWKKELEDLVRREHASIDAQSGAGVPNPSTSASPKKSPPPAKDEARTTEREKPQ
Nature of the data set: Inhibition of human N-terminal 6His-tagged SIRT2 assessed as inhibition of deacetylase activity using ZMAL as substrate measured after 4 hrs by Fluor de Lys assay.

For data set [2], the target named is T2, NAD-dependent protein deacetylase sirtuin-1 (Homo sapiens, UniProt Q96EB6).
T2 sequence (Q96EB6 whole entry): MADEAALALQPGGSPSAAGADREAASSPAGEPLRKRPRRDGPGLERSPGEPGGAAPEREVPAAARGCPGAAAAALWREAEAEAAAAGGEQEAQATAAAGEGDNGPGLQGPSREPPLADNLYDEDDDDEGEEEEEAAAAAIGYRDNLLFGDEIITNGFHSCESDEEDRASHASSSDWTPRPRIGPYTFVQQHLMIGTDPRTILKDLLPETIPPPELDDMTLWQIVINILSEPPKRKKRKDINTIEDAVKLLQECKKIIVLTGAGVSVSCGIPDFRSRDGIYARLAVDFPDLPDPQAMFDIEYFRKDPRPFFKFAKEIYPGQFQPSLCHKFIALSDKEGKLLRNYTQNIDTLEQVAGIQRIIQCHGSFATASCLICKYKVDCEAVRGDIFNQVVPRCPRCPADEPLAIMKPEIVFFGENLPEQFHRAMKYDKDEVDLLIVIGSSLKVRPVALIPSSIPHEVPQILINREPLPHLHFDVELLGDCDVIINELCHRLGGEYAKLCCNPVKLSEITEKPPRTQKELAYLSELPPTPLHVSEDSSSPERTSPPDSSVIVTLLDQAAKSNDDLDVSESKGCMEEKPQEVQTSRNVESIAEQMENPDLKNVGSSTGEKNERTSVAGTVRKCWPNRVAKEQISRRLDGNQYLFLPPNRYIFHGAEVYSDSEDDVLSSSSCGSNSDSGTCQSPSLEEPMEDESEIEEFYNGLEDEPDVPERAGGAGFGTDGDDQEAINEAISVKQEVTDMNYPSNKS
Nature of the data set: Inhibition of recombinant human SIRT1 assessed as inhibition of deacetylase activity using ZMAL as substrate measured after 4 hrs by Fluor de Lys assay.

The target of data set [3] is T2, NAD-dependent protein deacetylase sirtuin-1. The experiment in a line: Inhibition of recombinant SIRT1 (unknown origin) assessed as deacetylation activity using acetylated p53 as substrate measured after 2 hrs by Fluor de Lys assay.
A short description of data set [4]: Oral bioavailability in rat at 50 or 150 mg/kg/day administered through gavage for 14 consecutive days by HPLC analysis. Format: ADME, organism-based. Particulars: in vivo.
Data set [5] in a line: Oral bioavailability in human at 50 uCi up to 12 hrs using 14C-labeled compound by scintillation counting method. Format: ADME, organism-based. The note with it: in vivo.
A short description of data set [6]: Drug absorption in human at 50 uCi, po up to 12 hrs using 14C-labeled compound by scintillation counting method. Format: ADME, organism-based. Particulars: in vivo.
The target in data set [7] is T1, NAD-dependent protein deacetylase sirtuin-2. Nature of the data set: Inhibition of recombinant human GST-tagged SIRT2 overexpressed in Escherichia coli DH5alpha assessed as deacetylation activity using [3H]-MPSDKTIGG as substrate measured after overnight incubation by liquid scintillation counting method.
Data set [8] addresses T2, NAD-dependent protein deacetylase sirtuin-1. Nature of the data set: Inhibition of recombinant human GST-tagged SIRT1 overexpressed in Escherichia coli DH5alpha assessed as deacetylation activity using [3H]-MPSDKTIGG as substrate measured after overnight incubation by liquid scintillation counting method.
A short description of data set [9]: Cytotoxicity in human LNCAP cells assessed as growth inhibition measured after 48 hrs by MTT assay. Format: functional. A general note: Tetrazolium dyes change colour on reduction, which living cells bring about.
Data set [10] is described as follows: Cytotoxicity in human Caco2 cells assessed as growth inhibition measured after 48 hrs by MTT assay. Format: functional. The note with it: Caco-2, 48 h.
The target of data set [11] is T2, NAD-dependent protein deacetylase sirtuin-1. The experiment in a line: Inhibition of human SIRT1 assessed as deacetylation activity preincubated with protein followed by addition of AMC-tagged Arg-His-Lys-Lys(Ac) (379 to 382 residues) as substrate measured after 45 mins in presence of NAD+ by fluorescence assay.
Data set [12] can be described thus: Cytotoxicity in human MDA-MB-231 cells assessed as growth inhibition measured after 48 hrs by MTT assay. The data set is classed as functional. The note with it: MDA-MB-231, 48 h.
Data set [13] can be described thus: Cytotoxicity in human U937 cells assessed as growth inhibition measured after 48 hrs by MTT assay. Format: functional. Particulars: U-937, 48 h.
The nature of data set [14]: Cytotoxicity in HEK293 cells assessed as growth inhibition measured after 48 hrs by MTT assay. Particulars: human. Format: toxicity, cell-based.
Data set [15] deals with T2, NAD-dependent protein deacetylase sirtuin-1. The experiment in a line: Inhibition of human SIRT1 using biotinylated peptide with an acetylated FLAG sequence as substrate measured after 3 hr in presence of NAD+ by TR-FRET assay.
For data set [16], the target named is T1, NAD-dependent protein deacetylase sirtuin-2. The experiment in a line: Inhibition of human SIRT2 using biotin labeled histone H4 peptide with an acetylated lysine 4 as substrate measured after 1 hr by luminescence analysis.
The target in data set [17] is T2, NAD-dependent protein deacetylase sirtuin-1. The experiment in a line: Activation of recombinant human SIRT1 assessed as increase in deacetylation of Fluor de Lys-SIRT1-specific substrate after 2 hrs by HTS assay.
For data set [18], the target named is T1, NAD-dependent protein deacetylase sirtuin-2. The experiment in a line: Inhibition of full-length human N-terminal His6-tagged SIRT2 expressed in Escherichia coli BL21 (DE3) assessed as inhibition of deacetylase activity using ZMAL as substrate measured after 4 hrs by Fluor de Lys assay.
Data set [19] is described as follows: Oral bioavailability in rat at 56 or 168 mg/kg/day administered through gavage for 14 consecutive days by HPLC analysis. Format: ADME, organism-based. The note with it: in vivo.
The target of data set [20] is T2, NAD-dependent protein deacetylase sirtuin-1. The experiment in a line: Inhibition of SIRT1 (unknown origin) using acetylated lysine as substrate by Fluor de Lys assay.
Data set [21] concerns the target T3, NAD-dependent protein deacetylase sirtuin-1 (Homo sapiens) (UniProt Q96EB6).
T3 sequence (whole entry): T2 sequence (Q96EB6 whole entry)
The experiment in a line: Activation of recombinant human SIRT1 using TPE-GK(Ac)YDD as substrate at 50 uM by fluorescence assay relative to control.

What is called IC50 is the concentration needed to halve the response being measured. A word on the bioavailability: it is dose-corrected exposure relative to a reference, in per cent. As usually defined, the GI50 is the concentration that inhibits growth by half. As a reminder, the EC50 is the midpoint of the concentration-response curve.

Each structure is given as a SMILES string.

For the molecule `O=C1CC(=S)NC(=O)/C1=C/c1cc2ccccc2[nH]1`, the IC50 in data set [1] was under 20.3 µM; in data set [2], 5.9 µM.
In the case of `COc1ccc2[nH]c3c(c2c1)CCCC3C(=O)O` (configuration not stated), the half-maximal inhibitory concentration (IC50) in [3] is 2.8 µM.
Consider `Oc1ccc(/C=C/c2cc(O)cc(O)c2)cc1` [RESVERATROL], for which, in data set [4], the bioavailability came to 20%. Also, the F in data set [5] turned out to be 0.5%. The same molecule came in with a Fabs in [6] of 70%.
As to `CC(C)=CCC[C@]1(C)[C@@H](CC=C(C)C)C[C@]2(CC=C(C)C)C(=O)C(CC=C(C)C)=C(O)[C@@]1(C(=O)C(C)C)C2=O`, the IC50 in data set [7] is 28 µM; in [8], 15 µM.
In the case of `N#CC1=C(N)NC(SCC(=O)c2ccc(O)c(O)c2)=C(C#N)C1=C1C=CC(=O)C=C1`, the 50% growth inhibitory concentration (GI50) in [9], in [10], in [12] and in data set [13] was under 1 µM throughout. In data set [11], the half-maximal inhibitory concentration (IC50) is 16.4 µM. The 50% growth inhibitory concentration (GI50) at 48 h in [14] was under 1 µM.
As to `Cn1ncnc2c(=O)n(C)c(=O)nc1-2`, the IC50 in data set [15] worked out at 0.87 µM; in data set [16], 14.4 µM.
In the case of `CCc1ccccc1-n1c(N)c(C(=O)NCC2CCCO2)c2nc3ccccc3nc21` (configuration not stated), the EC50 in [17] was under 1 µM.
`Cc1ccc2[nH]c3c(c2c1)CCCC3C(=O)O` (configuration not stated): in data set [3], the half-maximal inhibitory concentration (IC50) stood at 3.1 µM.
Turning to `CC1=CCC(C(=O)/N=C2\CC=C(S(=O)(=O)O)c3cc(S(=O)(=O)O)cc(S(=O)(=O)O)c32)=C/C1=N/C(=O)C1=CC=C/C(=N\C(=O)/N=C2\C=CC=C(C(=O)/N=C3/CC(C(=O)/N=C4\CC=C(S(=O)(=O)O)c5cc(S(=O)(=O)O)cc(S(=O)(=O)O)c54)=CC=C3C)C2)C1`, in data set [18], the half-maximal inhibitory concentration (IC50) came to 1.15 µM.
For the molecule `CCCCc1nc2c(=O)n(C)c(=O)nc-2n(C)n1`, the IC50 in [15] was 0.11 µM; in [16] it was over 100 µM.
With `CC(C)=CCC/C(C)=C/C[C@@H]1C[C@]2(CC=C(C)C)C(=O)[C@@](CC=C(C)C)(C(=O)C(Cc3ccc(O)c(O)c3)=C2O)[C@@]1(C)CCC=C(C)C`, the IC50 amounted to 22 µM in [7] and 9 µM in [8].
On to `Oc1ccccc1-c1nc2ccc(Cl)cn2c1NCc1ccc2c(c1)OCO2`, for which the GI50 in [9], in data set [10], in [12] and in data set [13] was under 1 µM each time. The half-maximal inhibitory concentration (IC50) in data set [11] came out at 32 µM. In addition, in data set [14], the concentration for 50% growth inhibition (GI50) at 48 h was under 1 µM.
In data set [19], `COc1cc(/C=C/c2ccc(O)cc2)cc(OC)c1` [PTEROSTILBENE] came in with a bioavailability of 80%.
Take `NC(=O)c1cccc(Nc2ccccc2)c1`: in [20], the IC50 was over 100 µM.
Consider `CC(C)=CCC[C@](C)(O[C@@H]1O[C@H](CO)[C@@H](O)[C@H](O)[C@H]1O)[C@H]1CC[C@]2(C)[C@@H]1[C@H](O)C[C@@H]1[C@@]3(C)CC[C@H](O)C(C)(C)[C@@H]3[C@@H](O)C[C@]12C`, for which, in data set [21], the Activity amounted to 28%.
